{"source": "EPA's ToxRefDB 2", "key": {"[1]": {"system": "mouse", "details": "Combined chronic toxicity/carcinogenicity, b6c3f1, Oral, Feed, dose end: 2 year, group: systemic"}, "[2]": {"system": "rabbit", "details": "Prenatal developmental toxicity study, new zealand white, Oral, Gavage/Intubation, dose end: 19 GD"}, "[3]": {"system": "rat", "details": "Combined chronic toxicity/carcinogenicity, sprague dawley, Oral, Feed, dose end: 2 year, group: systemic"}, "[4]": {"system": "rabbit", "details": "Prenatal developmental toxicity study, new zealand white, Oral, Gavage/Intubation, dose end: 19 GD", "remark": "listed apart in the source"}, "[5]": {"system": "rat", "details": "Multigenerational reproductive toxicity study, sprague dawley, Oral, [Not Specified], dose end: 2 generation"}, "[6]": {"system": "rat", "details": "Prenatal developmental toxicity study, other, Oral, Gavage/Intubation, dose end: 15 GD"}, "[7]": {"system": "rat", "details": "Combined chronic toxicity/carcinogenicity, sprague dawley, Oral, Feed, dose end: 25 month, group: systemic"}, "[8]": {"system": "rat", "details": "Subchronic oral toxicity in rodents, wistar, Feed, dose end: 6 week, group: systemic"}, "[9]": {"system": "rat", "details": "Subchronic oral toxicity in rodents, sprague dawley, Feed, dose end: 13 week, group: systemic"}, "[10]": {"system": "mouse", "details": "Carcinogenicity, cd1, Oral, [Not Specified], dose end: 99 week, group: systemic"}, "[11]": {"details": "systemic / in life observation / mortality / mortality + systemic / in life observation / body weight / body weight"}, "[12]": {"details": "group: developmental, developmental / developmental malformation / brain / hydrocephaly"}, "[13]": {"details": "group: maternal, reproductive / reproductive performance / postimplantation loss / postimplantation loss"}, "[14]": {"details": "group: maternal, reproductive / reproductive performance / postimplantation loss / postimplantation loss + reproductive / reproductive performance / aborted…"}, "[15]": {"details": "systemic / pathology microscopic / liver / hyperplasia"}, "[16]": {"details": "systemic / pathology microscopic / liver / hyperplasia + systemic / in life observation / body weight / body weight + systemic / pathology …"}, "[17]": {"details": "group: developmental, developmental / developmental malformation / brain / dilated cerebral ventricle + developmental / developmental malformation / brain / …"}, "[18]": {"details": "group: maternal, systemic / in life observation / body weight / body weight + systemic / in life observation / body weight / body weight gain + reproductive…"}, "[19]": {"details": "group: offspring, developmental / offspring survival late / viability index / viability index + systemic / in life observation / body weight / offspring (pup…"}, "[20]": {"details": "group: parental, systemic / in life observation / body weight / body weight + systemic / in life observation / body weight / body weight gain + systemic / …"}, "[21]": {"details": "group: developmental, developmental / developmental malformation / eye / anophthalmia + developmental / developmental malformation / eye / microphthalmia"}, "[22]": {"details": "group: maternal, systemic / in life observation / body weight / body weight gain"}, "[23]": {"details": "systemic / clinical chemistry / alanine aminotransferase (alt/sgpt) / alanine aminotransferase (alt/sgpt) + systemic / clinical chemistry / …"}, "[24]": {"details": "systemic / pathology microscopic / liver / hypertrophy"}, "[25]": {"details": "systemic / in life observation / body weight / body weight gain + systemic / clinical chemistry / protein / protein + systemic / clinical …"}, "[26]": {"details": "systemic / clinical chemistry / albumin / albumin + systemic / clinical chemistry / protein / protein"}, "[27]": {"details": "systemic / clinical chemistry / cholesterol / cholesterol + systemic / in life observation / body weight / body weight + systemic / in life …"}, "[28]": {"details": "systemic / in life observation / body weight / body weight gain + systemic / in life observation / mortality / mortality + systemic / organ …"}}, "data": [{"compound": "C1CC[CH]([Sn+]([CH]2CCCCC2)[CH]2CCCCC2)CC1.[OH-]", "note": "[Cyhexatin]", "values": [{"measurement": "LOAEL", "setting": "[1]; systemic / in life observation / mortality / mortality", "value": 6, "unit": "mg/kg/day"}, {"measurement": "LEL", "setting": "[1]; [11]", "value": 6, "unit": "mg/kg/day"}, {"measurement": "NEL", "setting": "[1]; [11]", "value": 3, "unit": "mg/kg/day"}, {"measurement": "NOAEL", "setting": "[1]; [11]", "value": 3, "unit": "mg/kg/day"}, {"measurement": "LEL", "setting": "[2]; [12]", "value": 3, "unit": "mg/kg/day"}, {"measurement": "LOAEL", "setting": "[2]; [12]", "value": "> 3", "unit": "mg/kg/day"}, {"measurement": "NEL", "setting": "[2]; [12]", "value": 1, "unit": "mg/kg/day"}, {"measurement": "NOAEL", "setting": "[2]; [12]", "value": "≥ 3", "unit": "mg/kg/day"}, {"measurement": "LEL", "setting": "[2]; [13]", "value": 1, "unit": "mg/kg/day"}, {"measurement": "LOAEL", "setting": "[2]; [13]", "value": 1, "unit": "mg/kg/day"}, {"measurement": "NEL", "setting": "[2]; [14]", "value": 0.5, "unit": "mg/kg/day"}, {"measurement": "NOAEL", "setting": "[2]; [14]", "value": 0.5, "unit": "mg/kg/day"}, {"measurement": "LOAEL", "setting": "[3]; [15]", "value": 1, "unit": "mg/kg/day"}, {"measurement": "NOAEL", "setting": "[3]; [15]", "value": "< 1", "unit": "mg/kg/day"}, {"measurement": "LEL", "setting": "[3]; [16]", "value": 1, "unit": "mg/kg/day"}, {"measurement": "NEL", "setting": "[3]; [16]", "value": "< 1", "unit": "mg/kg/day"}, {"measurement": "LEL", "setting": "[4]; [17]", "value": 0.75, "unit": "mg/kg/day"}, {"measurement": "LOAEL", "setting": "[4]; [17]", "value": "> 3", "unit": "mg/kg/day"}, {"measurement": "NEL", "setting": "[4]; [17]", "value": "< 0.75", "unit": "mg/kg/day"}, {"measurement": "NOAEL", "setting": "[4]; [17]", "value": "≥ 3", "unit": "mg/kg/day"}, {"measurement": "LOAEL", "setting": "[4]; group: maternal, systemic / in life observation / body weight / body weight + systemic / in life observation / body weight / body weight gain", "value": 3, "unit": "mg/kg/day"}, {"measurement": "LEL", "setting": "[4]; [18]", "value": 3, "unit": "mg/kg/day"}, {"measurement": "NEL", "setting": "[4]; [18]", "value": 0.75, "unit": "mg/kg/day"}, {"measurement": "NOAEL", "setting": "[4]; [18]", "value": 0.75, "unit": "mg/kg/day"}, {"measurement": "LEL", "setting": "[5]; [19]", "value": 6, "unit": "mg/kg/day"}, {"measurement": "LOAEL", "setting": "[5]; [19]", "value": "> 6", "unit": "mg/kg/day"}, {"measurement": "NEL", "setting": "[5]; [19]", "value": 0.5, "unit": "mg/kg/day"}, {"measurement": "NOAEL", "setting": "[5]; [19]", "value": "≥ 6", "unit": "mg/kg/day"}, {"measurement": "LEL", "setting": "[5]; group: parental, systemic / in life observation / body weight / body weight + systemic / in life observation / body weight / body weight gain", "value": 0.5, "unit": "mg/kg/day"}, {"measurement": "LOAEL", "setting": "[5]; [20]", "value": "> 6", "unit": "mg/kg/day"}, {"measurement": "NEL", "setting": "[5]; [20]", "value": 0.1, "unit": "mg/kg/day"}, {"measurement": "NOAEL", "setting": "[5]; [20]", "value": "≥ 6", "unit": "mg/kg/day"}]}, {"compound": "CCCN(CCC)c1c([N+](=O)[O-])cc(C(F)(F)F)c(N)c1[N+](=O)[O-]", "note": "[Prodiamine]", "values": [{"measurement": "LEL", "setting": "[6]; [21]", "value": 100, "unit": "mg/kg/day"}, {"measurement": "LOAEL", "setting": "[6]; [21]", "value": 100, "unit": "mg/kg/day"}, {"measurement": "NEL", "setting": "[6]; [21]", "value": "< 100", "unit": "mg/kg/day"}, {"measurement": "NOAEL", "setting": "[6]; [21]", "value": "< 100", "unit": "mg/kg/day"}, {"measurement": "LEL", "setting": "[6]; [22]", "value": 1000, "unit": "mg/kg/day"}, {"measurement": "LOAEL", "setting": "[6]; [22]", "value": 1000, "unit": "mg/kg/day"}, {"measurement": "NEL", "setting": "[6]; [22]", "value": 300, "unit": "mg/kg/day"}, {"measurement": "NOAEL", "setting": "[6]; [22]", "value": 300, "unit": "mg/kg/day"}, {"measurement": "LOAEL", "setting": "[7]; [23]", "value": 37, "unit": "mg/kg/day"}, {"measurement": "NOAEL", "setting": "[7]; [23]", "value": 9.1, "unit": "mg/kg/day"}, {"measurement": "LEL", "setting": "[7]; [24]", "value": 1.8, "unit": "mg/kg/day"}, {"measurement": "NEL", "setting": "[7]; [24]", "value": "< 1.8", "unit": "mg/kg/day"}, {"measurement": "LEL", "setting": "[8]; systemic / clinical chemistry / protein / protein", "value": 63, "unit": "mg/kg/day"}, {"measurement": "LOAEL", "setting": "[8]; systemic / in life observation / body weight / body weight gain", "value": 681, "unit": "mg/kg/day"}, {"measurement": "NEL", "setting": "[8]; [25]", "value": 16.8, "unit": "mg/kg/day"}, {"measurement": "NOAEL", "setting": "[8]; [25]", "value": 63, "unit": "mg/kg/day"}, {"measurement": "LEL", "setting": "[9]; [26]", "value": 26.7, "unit": "mg/kg/day"}, {"measurement": "NEL", "setting": "[9]; [26]", "value": "< 26.7", "unit": "mg/kg/day"}, {"measurement": "LOAEL", "setting": "[9]; [27]", "value": 269, "unit": "mg/kg/day"}, {"measurement": "NOAEL", "setting": "[9]; [27]", "value": 80.1, "unit": "mg/kg/day"}, {"measurement": "LOAEL", "setting": "[10]; [28]", "value": 750, "unit": "mg/kg/day"}, {"measurement": "NEL", "setting": "[10]; [28]", "value": 7.5, "unit": "mg/kg/day"}, {"measurement": "NOAEL", "setting": "[10]; [28]", "value": 75, "unit": "mg/kg/day"}, {"measurement": "LEL", "setting": "[10]; systemic / in life observation / body weight / body weight gain + systemic / organ weight / kidney / nos + systemic / in life observation / …", "value": 75, "unit": "mg/kg/day"}]}]}
